Measured values reported in patent US20220226329A1, “METHOD TO INDUCE HEMATOPOIETIC CHIMERISM” (The General Hospital Corporation, priority 2019, published 2022).
Where “and” joins values, the source holds several entries; their conditions need not be identical. Identical values can stand only once. Entries after “also recorded” stand apart in the source; their conditions may differ. One block for each compound: values may come before it.

Experiments:
[1] = system: Bcl-2, Bcl-xL, Bcl-w, Mcl-1; settings: literature statements; cited from earlier work
[2] = system: hematopoietic stem cells (HSCs); experiment: Drug-only study: HSC deletion in bone marrow (flow cytometry) and total CFU assay; type: in vivo, cynomolgus macaques; settings: S63845 5 mg/kg x 5 alone
From the text: In certain embodiments, the deletion of CD34^+ cells of the bone marrow can be determined using flow cytometry and comparing the amount of CD34^+ cells of the bone marrow to pre-treatment levels. The reduction in total colony forming units can be measured by a CFU assay and comparing the CFUs to pre-treatment levels.

[3] = Blood counts (CBC: white blood cells, neutrophils, platelets, HCT) after conditioning and transplantation; type: in vivo, Cynomolgus monkeys
Description: (§1) Combined kidney and bone marrow transplantation (CKBMT): All recipients were conditioned with total body irradiation (TBI) (1.5 Gy on day −5, relative to the day of CKBMT), local thymic irradiation (TI) (7 Gy on day −1) and equine-derived anti-thymocyte globulin (hATG) (Atgam; Pharmacia and Upjohn, Kalamazoo, Mich.; 50 mg/kg/day i.v. on days −2, −1 and 0). Following DBMT, the recipients were also treated with anti-CD154 mAb (5c8; 20 mg/kg i.v. on days 0 and 2, 7, and 12 post-DBMT). Cyclosporine A (CyA, Novartis, Basel, Switzerland) was administered intramuscular (IM) on days 0-27 post DBMT, after which no immunosuppression was administered (FIG. 6).
(§2) Statistical analyses: Statistical analysis was performed with GraphPad PRISM 7.01 (GraphPad Software, Inc, San Diego, Calif.). We used two way ANOVA to compare chimerism, CBC, and T cell subsets. Mantel-Cox log-rank test was used to analyze survival of different groups and. P values lower than 0.05 have been considered statistically significant.

[4] = system: BAX (the BCL-2-associated X protein); experiment: Intrinsic apoptosis: expression of BAX and other apoptotic markers in peripheral lymphocytes (flow cytometry, CyTOF); type: in vivo, Cynomolgus monkeys; settings: 10 mg/kg x 11 (day -4 to +6), TBI 1.5 Gy regimen, n=3
Description: To examine intrinsic apoptosis induced by ABT-199, expression of BAX (the BCL-2-associated X protein), which is pro-apoptotic protein that plays an important role in the mitochondria-dependent apoptotic pathway was assessed.
Flow cytometric and CyTOF analyses: Peripheral blood mononuclear cells (PBMCs) were labeled with a combination of the following mAbs: CD3 (SP34-2), CD4 (L200), CD8 (SK1), CD21 (B-ly4), CD27 (M-T271), CD28 (CD28.2), CD95 (DX2), and IgM (G20-127) (BD Pharmingen, San Jose, Calif.), CD20 (2H7) (Biolegend, Inc., San Diego, Calif.) and FOXP3 (236A/E7) (eBioscience, Inc., San Diego, Calif.). The fluorescence of the stained samples was analyzed using FACSverse (BD Biosciences, San Jose, Calif.) and Accuri flow cytometers (BD PharMingen), and FlowJo software (Tree Star, Inc., Ashland, Oreg.). A CyTOF panel for cynomolgus monkeys was designed. The CyTOF panel consisted of antibodies against various NHP leukocyte markers including CD3, CD4, CD8, Foxp3, CD127, CTLA4, Ki-67, CD95, CD20, CD21, CD27, CD38, CD123, CD31, CD11c, CD25, HLA-DR, CD45RA, CD159 (NKG2a), Granzyme B, Caspase 3/7/9, Bax and Cytochrom C.

[5] = system: Cynomolgus monkeys; experiment: Renal allograft survival / rejection after CKBMT without maintenance immunosuppression; type: in vivo; settings: per animal
Description: To evaluate whether Bcl-2 inhibitor (ABT-199) can promote engraftment of hematopoietic stem cells with reduced myelosuppressive therapy, monkeys were treated with various modified regimens with ABT-199 and compared with standard regimen without ABT-199. The basic conditioning regimen consisted of low dose total body irradiation (TBI), thymic irradiation (TI, 7 Gy) and peri-transplant ATG administration. […] In Groups C-E, 10 mg/kg of ABT-199 was administered for 11 days (day −4 to day 6). Animals were divided into five groups according to the treatments (Table 1).
(§3) Animals and pair selections: Cynomolgus monkeys, including donor animals, weighing 4-8 kg were used for this study (Charles River Primates, Wilmington, Mass.). Donors and recipients were paired on the basis of ABO blood type compatibility and major histocompatibility complex (MHC) mismatching. MHC characterization was performed as previously described (O'Connor, S. L., et al. 2007, Immunogenetics 59, 449-462.; Pendley, C. J., et al. 2008, Immunogenetics 60, 339-351.). All surgical procedures and postoperative care of animals were performed in accordance with National Institute of Health guidelines for the care and use of primates and were approved by the Massachusetts General Hospital Institutional Animal Care and Use Committee (IACUC).
as §1, with “Following DBMT, the recipients were also treated with anti-CD154 mAb (5c8; 20 mg/kg i.v. on days 0 and 2, 7, and 12 post-DBMT).” left out
Kidney transplantation (KTx): Monkeys underwent heterotopic KTx and nephrectomy as previously described (Cosimi, A. B., et al. 1990, Surgery 108, 406-413.).
as §2

[6] = system: Cynomolgus monkeys; experiment: Hematopoietic chimerism after combined kidney and bone marrow transplantation (CKBMT), flow cytometry of peripheral blood; type: in vivo; settings: recipients with chimerism/total
Description: To evaluate whether Bcl-2 inhibitor (ABT-199) can promote engraftment of hematopoietic stem cells with reduced myelosuppressive therapy, monkeys were treated with various modified regimens with ABT-199 and compared with standard regimen without ABT-199. The basic conditioning regimen consisted of low dose total body irradiation (TBI), thymic irradiation (TI, 7 Gy) and peri-transplant ATG administration. After combined kidney and bone marrow transplantation, the recipients were treated with anti-CD154 mAb for 2 weeks and CyA for 4 weeks, after which no immunosuppression was given (FIG. 1). In Groups C-E, 10 mg/kg of ABT-199 was administered for 11 days (day −4 to day 6). Animals were divided into five groups according to the treatments (Table 1).
as §3
Following DBMT, the recipients were also treated with anti-CD154 mAb (5c8; 20 mg/kg i.v. on days 0 and 2, 7, and 12 post-DBMT). Cyclosporine A (CyA, Novartis, Basel, Switzerland) was administered intramuscular (IM) on days 0-27 post DBMT, after which no immunosuppression was administered (FIG. 6).
Bone marrow transplantation: Donor bone marrow cells (DBMC) were obtained by multiple aspirations from the iliac crests, humerus head, and vertebral bones under general anesthesia. If the donor animal was sacrificed, DBMC were harvested from the vertebral bones after euthanasia. DBMC (1.0-3.0×10^8 mononuclear cells/kg) were infused intravenously.
Detection of hematopoietic chimerism: A monkey was selected that was either BB7.6 (HLA-B7B40) positive or a H38 (HLA-BW6) positive monkey as a donor and a monkey negative to these antibodies was selected as a recipient. In all experiments, the percentage of cells that stained with each mAb was determined from one color fluorescence histogram and compared with those obtained from donor and pretreatment frozen recipient cells, which were used as positive and negative controls. The percentage of cells considered positive was determined with a cutoff chosen as the fluorescence level at the beginning of the positive peak for the positive control stain and by subtracting the percentage of cells stained with an isotype control. By using forward and 90° light scatter (FSC and SSC, respectively) dot plots, lymphocyte (FSC- and SSC-low), granulocyte (SSC-high), and monocyte (FSC-high but SSC-low) populations were gated, and chimerism was determined separately for each population. Nonviable cells were excluded by propidium iodide (Thermo Fischer Scientific, Grand Island, N.Y.) staining.

[7] = Example 2 Group D: ABT-199 +, TBI 0 Gy, TI 7 Gy
[8] = Example 2 Group E: ABT-199 +, TBI 1.5 Gy, TI 0 Gy
[9] = Example 3 Group E: venetoclax +, TBI 1.5 Gy, TI 7 Gy, CoB Belatacept
[10] = Example 3 Group F: venetoclax +, TBI 1.5 Gy, TI 7 Gy, no CoB
[11] = Example 3 Group G: venetoclax +, TBI 1.5 Gy, TI 0 Gy, CoB aCD154
[12] = Example 3 Group H: venetoclax +, TBI 0 Gy, TI 7 Gy, CoB aCD154

Structure (SMILES): CN(C)CC[C@H](CSc1ccccc1)Nc1ccc(S(=O)(=O)NC(=O)c2ccc(N3CCN(Cc4ccccc4-c4ccc(Cl)cc4)CC3)cc2)cc1[N+](=O)[O-] [ABT-737]
Selectivity among Bcl-2 family proteins [1]: inhibits Bcl-2, Bcl-xL and Bcl-w but not Mcl-1

Structure (SMILES): Cc1c(-c2c(-c3ccc(F)o3)sc3ncnc(O[C@H](Cc4ccccc4OCc4ccnn4CC(F)(F)F)C(=O)O)c23)ccc(OCCN2CCN(C)CC2)c1Cl [S63845]
HSCs in BM, % of the pretreatment level [2]: 51%
total colony forming units (CFU), % of pretreatment [2]: 45%

Platelet counts (thrombocytopenia) ([3]; 10 mg/kg x 11, after treatment): prolonged thrombocytopenia
Structure (SMILES): CC1(C)CCC(c2ccc(Cl)cc2)=C(CN2CCN(c3ccc(C(=O)NS(=O)(=O)c4ccc(N[C@H](CCN5CCOCC5)CSc5ccccc5)c(S(=O)(=O)C(F)(F)F)c4)cc3)CC2)C1 [navitoclax]
Bax expression in T cells, B cells and NK cells compared to pre Rx levels [4]: only observed with venetoclax but not with navitoclax

Structure (SMILES): CC1(C)CCC(CN2CCN(c3ccc(C(=O)NS(=O)(=O)c4ccc(NCC5CCOCC5)c([N+](=O)[O-])c4)c(Oc4cnc5[nH]ccc5c4)c3)CC2)=C(c2ccc(Cl)cc2)C1 [venetoclax]
Pancytopenia / neutropenia ([3]; Example 2 Group C: ABT-199 +, TBI 1.5 Gy, TI 7 Gy, in contrast to Group A (TBI 3 Gy, no ABT-199)): without development of severe pancytopenia; also recorded: without neutropenia
White blood cell counts, platelet counts, HCT (leukopenia, thrombocytopenia, anemia) ([3]; Example 3 Group D: venetoclax, TBI 1.5 Gy): no leukopenia, thrombocytopenia, or anemia; also recorded: stable
Graft survival ([5]; Example 2 Group C: ABT-199 +, TBI 1.5 Gy, TI 7 Gy): > 316 days and > 637 days and > 301 days and > 313 days and > 361 days and > 646 days
Graft survival [5, 7]: 142 days and 100 days
Graft survival [5, 8]: 163 days and 100 days and 97 days
Renal Allograft Survival (days) ([5]; Example 3 Group D: venetoclax +, TBI 1.5 Gy, TI 7 Gy, CoB aCD154): exceeding 1000 days
Renal Allograft Survival (days) ([5]; Example 3 Group D: venetoclax +, TBI 1.5 Gy, TI 7 Gy, CoB aCD154, listed as Venetoclax): > 1071 days and > 735 days and > 313 days
Renal Allograft Survival (days) [5, 9]: > 574 days and > 308 days
Renal Allograft Survival (days) ([5]; Example 3 Group E: venetoclax +, TBI 1.5 Gy, TI 7 Gy, CoB Belatacept, listed as Venetoclax): > 574 days and > 308 days and 237 days
Renal Allograft Survival (days) [5, 10]: 74 days and 127 days
Renal Allograft Survival (days) [5, 11]: 97 days and 100 days and 163 days
Renal Allograft Survival (days) [5, 12]: 120 days and 142 days
Chimerism ([6]; Example 2 Group C: ABT-199 10 mg/kg x 11 days (day -4 to 6), TBI 1.5 Gy, TI 7 Gy): 3/3
Chimerism [6, 7]: 0/2
Chimerism [6, 8]: 2/2
Chimerism ([6]; Example 3 Group D: venetoclax 10 mg/kg x 11 IM, TBI 1.5 Gy, TI 7 Gy, CoB aCD154): 5/5
Chimerism [6, 9]: 3/3
Chimerism [6, 10]: 0/2
Chimerism [6, 11]: 3/3
Chimerism [6, 12]: 0/2
